# Results taken from PubChem BioAssay (NCI).
# Where “and” joins values, the source holds several entries; their conditions need not be identical. Equal values may be shown once.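 96-well plates; 48 h exposure; 5 concentrations. Endpoints by linear interpolation between flanking doses. Not reached: highest tested concentration assigned. GI50 marks 50% less growth. The concentration for full growth arrest is given as TGI.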
# What was measured:
# Experiment in all cases: NCI tumour cell line growth inhibition, 48 h
# U251 CNS = test system: U251 CNS
# 786-0 renal = test system: 786-0 renal
# SR leukemia = test system: SR leukemia
# LOX IMVI melanoma = test system: LOX IMVI melanoma
# MALME-3M melanoma = test system: MALME-3M melanoma
# NCI-H522 lung = test system: NCI-H522 lung
# HCT-116 colon = test system: HCT-116 colon
# OVCAR-3 ovarian = test system: OVCAR-3 ovarian
# SK-MEL-2 melanoma = test system: SK-MEL-2 melanoma
# HL-60(TB) leukemia = test system: HL-60(TB) leukemia
# HOP-62 NSCLC = test system: HOP-62 NSCLC
# UACC-62 melanoma = test system: UACC-62 melanoma
# A498 renal = test system: A498 renal
# HS 578T breast = test system: HS 578T breast
# NCI-H460 lung = test system: NCI-H460 lung
# SNB-19 CNS = test system: SNB-19 CNS
# M14 melanoma = test system: M14 melanoma
# IGROV1 ovarian = test system: IGROV1 ovarian
# HCC-2998 colon = test system: HCC-2998 colon
# SNB-75 CNS = test system: SNB-75 CNS
# MOLT-4 leukemia = test system: MOLT-4 leukemia
# UACC-257 melanoma = test system: UACC-257 melanoma
# NCI-H226 lung = test system: NCI-H226 lung
# HT29 colon = test system: HT29 colon
# RXF 393 renal = test system: RXF 393 renal
# NCI/ADR-RES ovarian = test system: NCI/ADR-RES ovarian
# KM12 colon = test system: KM12 colon
# MDA-MB-231 breast = test system: MDA-MB-231 breast
# BT-549 breast = test system: BT-549 breast
# SF-539 CNS = test system: SF-539 CNS
# PC-3 prostate = test system: PC-3 prostate
# ACHN renal = test system: ACHN renal
# SN12C renal = test system: SN12C renal
# DU-145 prostate = test system: DU-145 prostate
# NCI-H23 lung = test system: NCI-H23 lung
# SK-MEL-5 melanoma = test system: SK-MEL-5 melanoma
# CCRF-CEM leukemia = test system: CCRF-CEM leukemia
# SK-MEL-28 melanoma = test system: SK-MEL-28 melanoma
# MDA-MB-435 = test system: MDA-MB-435
# CAKI-1 renal = test system: CAKI-1 renal
# A549 NSCLC = test system: A549 NSCLC
# MCF7 breast = test system: MCF7 breast
# MDA-N = test system: MDA-N
# SK-OV-3 ovarian = test system: SK-OV-3 ovarian
# TK-10 renal = test system: TK-10 renal
# SF-295 CNS = test system: SF-295 CNS
# EKVX NSCLC = test system: EKVX NSCLC
# COLO 205 colon = test system: COLO 205 colon
# K-562 leukemia = test system: K-562 leukemia
# SW-620 colon = test system: SW-620 colon
# UO-31 renal = test system: UO-31 renal
# OVCAR-8 ovarian = test system: OVCAR-8 ovarian
# HOP-92 NSCLC = test system: HOP-92 NSCLC
# OVCAR-4 ovarian = test system: OVCAR-4 ovarian
# RPMI-8226 leukemia = test system: RPMI-8226 leukemia
# OVCAR-5 ovarian = test system: OVCAR-5 ovarian
# T-47D breast = test system: T-47D breast
# HCT-15 colon = test system: HCT-15 colon
# SF-268 CNS = test system: SF-268 CNS
smiles,measurement,setting,value
Cc1cc(C)c2c(=O)cc(-c3ccc(Cl)cc3)[nH]c2n1,TGI,U251 CNS,> 100 µM
same,TGI,786-0 renal,> 100 µM
same,TGI,SR leukemia,> 100 µM
same,TGI,LOX IMVI melanoma,> 100 µM
same,TGI,MALME-3M melanoma,> 59.3 µM
same,TGI,NCI-H522 lung,> 100 µM
same,TGI,HCT-116 colon,> 63.4 µM
same,TGI,OVCAR-3 ovarian,> 100 µM
same,TGI,SK-MEL-2 melanoma,> 100 µM
same,TGI,HL-60(TB) leukemia,> 83 µM
same,TGI,HOP-62 NSCLC,> 100 µM
same,TGI,UACC-62 melanoma,> 100 µM
same,TGI,A498 renal,> 100 µM
same,TGI,HS 578T breast,> 100 µM
same,TGI,NCI-H460 lung,> 100 µM
same,TGI,SNB-19 CNS,> 100 µM
same,TGI,M14 melanoma,> 100 µM
same,TGI,IGROV1 ovarian,> 100 µM
same,TGI,HCC-2998 colon,> 100 µM
same,TGI,SNB-75 CNS,> 65 µM
same,TGI,MOLT-4 leukemia,> 100 µM
same,TGI,UACC-257 melanoma,83.1 µM
same,TGI,NCI-H226 lung,> 100 µM
same,TGI,HT29 colon,> 48.5 µM
same,TGI,RXF 393 renal,> 100 µM
same,TGI,NCI/ADR-RES ovarian,> 74.3 µM
same,TGI,KM12 colon,> 100 µM
same,TGI,MDA-MB-231 breast,> 51.8 µM
same,TGI,BT-549 breast,99.4 µM
same,TGI,SF-539 CNS,> 100 µM
same,TGI,PC-3 prostate,> 50.7 µM
same,TGI,ACHN renal,> 100 µM
same,TGI,SN12C renal,> 100 µM
same,TGI,DU-145 prostate,> 100 µM
same,TGI,NCI-H23 lung,> 100 µM
same,TGI,SK-MEL-5 melanoma,> 74.2 µM
same,TGI,CCRF-CEM leukemia,> 100 µM
same,TGI,SK-MEL-28 melanoma,> 75.2 µM
same,TGI,MDA-MB-435,27.6 µM
same,TGI,CAKI-1 renal,> 55.4 µM
same,TGI,A549 NSCLC,> 100 µM
same,TGI,MCF7 breast,> 100 µM
same,TGI,MDA-N,25 µM
same,TGI,SK-OV-3 ovarian,> 100 µM
same,TGI,TK-10 renal,> 100 µM
same,TGI,SF-295 CNS,> 73.3 µM
same,TGI,EKVX NSCLC,> 100 µM
same,TGI,COLO 205 colon,> 55.6 µM
same,TGI,K-562 leukemia,> 71.4 µM
same,TGI,SW-620 colon,> 100 µM
same,TGI,UO-31 renal,> 93.9 µM
same,TGI,OVCAR-8 ovarian,> 100 µM
same,TGI,HOP-92 NSCLC,> 100 µM
same,TGI,OVCAR-4 ovarian,> 100 µM
same,TGI,RPMI-8226 leukemia,> 100 µM
same,TGI,OVCAR-5 ovarian,> 100 µM
same,TGI,T-47D breast,> 100 µM
same,TGI,HCT-15 colon,> 100 µM
same,TGI,SF-268 CNS,> 100 µM
CC1OC(OC2C(OC(=O)[C@]34CCC(C)(C)C[C@H]3C3=CC[C@@H]5[C@@]6(C)CC[C@H](OC7OC(C(=O)O)C(O)C(O)C7O)C(C)(C)[C@@H]6CC[C@@]5(C)[C@]3(C)CC4)OCC(O)C2O)C(O)C(O)C1OC1OCC(O)C(O)C1O (some centres undefined),TGI,U251 CNS,> 100 µM
same,TGI,786-0 renal,> 100 µM
same,GI50,SR leukemia,46.2 µM and 22.5 µM
same,TGI,SR leukemia,> 100 µM and 77.1 µM
same,TGI,LOX IMVI melanoma,> 100 µM
same,TGI,MALME-3M melanoma,> 100 µM
same,TGI,NCI-H522 lung,> 100 µM
same,TGI,HCT-116 colon,> 100 µM
same,TGI,OVCAR-3 ovarian,> 100 µM
same,TGI,SK-MEL-2 melanoma,> 100 µM and 63.7 µM
same,TGI,HL-60(TB) leukemia,73.5 µM and 45.8 µM
same,GI50,HOP-62 NSCLC,> 100 µM and 25.5 µM
same,TGI,HOP-62 NSCLC,> 100 µM and 55.6 µM
same,TGI,UACC-62 melanoma,86.5 µM and > 100 µM
same,TGI,A498 renal,33.2 µM and 35.7 µM
same,GI50,HS 578T breast,> 100 µM and 45.5 µM
same,TGI,HS 578T breast,> 100 µM
same,TGI,NCI-H460 lung,> 100 µM
same,GI50,SNB-19 CNS,> 100 µM and 47.5 µM
same,TGI,SNB-19 CNS,> 100 µM
same,TGI,M14 melanoma,56 µM and 35.6 µM
same,TGI,IGROV1 ovarian,> 100 µM
same,TGI,HCC-2998 colon,33.6 µM and 34 µM
same,GI50,SNB-75 CNS,80.6 µM and 24.7 µM
same,TGI,SNB-75 CNS,> 100 µM and 76.8 µM
same,GI50,MOLT-4 leukemia,> 100 µM and 36.9 µM
same,TGI,MOLT-4 leukemia,> 100 µM
same,TGI,UACC-257 melanoma,93.1 µM and > 100 µM
same,TGI,NCI-H226 lung,> 100 µM
same,TGI,HT29 colon,> 100 µM and 30.1 µM
same,TGI,RXF 393 renal,> 100 µM
same,TGI,NCI/ADR-RES ovarian,> 100 µM
same,GI50,KM12 colon,37.9 µM and 17.1 µM
same,TGI,KM12 colon,> 100 µM and 34 µM
same,TGI,MDA-MB-231 breast,60.4 µM and 35.4 µM
same,GI50,BT-549 breast,40 µM and 18.4 µM
same,TGI,BT-549 breast,> 100 µM and 37.3 µM
same,GI50,PC-3 prostate,66.9 µM and 25.2 µM
same,TGI,PC-3 prostate,> 100 µM and 74.7 µM
same,TGI,SN12C renal,50.5 µM and 40.5 µM
same,GI50,DU-145 prostate,> 100 µM and 45.9 µM
same,TGI,DU-145 prostate,> 100 µM
same,TGI,NCI-H23 lung,42.5 µM and 38.3 µM
same,GI50,SK-MEL-5 melanoma,> 100 µM and 28.3 µM
same,TGI,SK-MEL-5 melanoma,> 100 µM
same,TGI,CCRF-CEM leukemia,> 100 µM
same,TGI,SK-MEL-28 melanoma,34.4 µM and 58.9 µM
same,TGI,MDA-MB-435,34.8 µM
same,TGI,CAKI-1 renal,> 100 µM
same,TGI,A549 NSCLC,> 100 µM
same,TGI,MCF7 breast,> 100 µM
same,TGI,MDA-N,37.8 µM and 36.2 µM
same,TGI,SK-OV-3 ovarian,> 100 µM
same,GI50,SF-295 CNS,53.5 µM and 24 µM
same,TGI,SF-295 CNS,> 100 µM and 58.6 µM
same,TGI,EKVX NSCLC,79.3 µM and 48.4 µM
same,TGI,COLO 205 colon,31.2 µM and 30.6 µM
same,GI50,K-562 leukemia,58.7 µM and 28 µM
same,TGI,K-562 leukemia,> 100 µM and 76.9 µM
same,GI50,SW-620 colon,98 µM and 45.1 µM
same,TGI,SW-620 colon,> 100 µM
same,TGI,UO-31 renal,39.1 µM and 34.8 µM
same,TGI,OVCAR-8 ovarian,> 100 µM
same,TGI,HOP-92 NSCLC,99.8 µM and 43.7 µM
same,TGI,OVCAR-4 ovarian,> 100 µM
same,GI50,RPMI-8226 leukemia,54.5 µM and 25.6 µM
same,TGI,RPMI-8226 leukemia,> 100 µM and 71.5 µM
same,TGI,OVCAR-5 ovarian,> 100 µM
same,TGI,T-47D breast,> 100 µM
same,TGI,HCT-15 colon,> 100 µM
same,TGI,SF-268 CNS,> 100 µM
CCCCCCCC/C=C\CCCCCCCCNc1ccn(C2OC(COP(=O)(O)OC3CC(n4cc(F)c(=O)[nH]c4=O)OC3CO)C(O)C2O)c(=O)n1 (centres undefined),TGI,U251 CNS,> 100 µM
same,TGI,786-0 renal,> 100 µM
same,TGI,SR leukemia,37.7 µM
same,TGI,LOX IMVI melanoma,> 37.2 µM
same,TGI,MALME-3M melanoma,> 100 µM
same,TGI,NCI-H522 lung,> 100 µM
same,TGI,HCT-116 colon,> 100 µM
same,TGI,OVCAR-3 ovarian,> 100 µM
same,TGI,SK-MEL-2 melanoma,> 100 µM
same,TGI,HL-60(TB) leukemia,45.7 µM
same,TGI,HOP-62 NSCLC,> 100 µM
same,TGI,UACC-62 melanoma,> 95 µM
same,TGI,A498 renal,> 53.2 µM
same,TGI,HS 578T breast,> 100 µM
same,TGI,NCI-H460 lung,> 100 µM
same,TGI,SNB-19 CNS,> 100 µM
same,TGI,M14 melanoma,> 73.5 µM
same,TGI,IGROV1 ovarian,> 100 µM
same,TGI,HCC-2998 colon,> 100 µM
same,TGI,SNB-75 CNS,> 100 µM
same,TGI,MOLT-4 leukemia,20.5 µM
same,TGI,UACC-257 melanoma,> 100 µM
same,TGI,NCI-H226 lung,> 100 µM
same,TGI,HT29 colon,> 61.8 µM
same,TGI,RXF 393 renal,> 100 µM
same,TGI,NCI/ADR-RES ovarian,> 100 µM
same,TGI,KM12 colon,> 100 µM
same,TGI,MDA-MB-231 breast,> 100 µM
same,TGI,BT-549 breast,> 100 µM
same,TGI,SF-539 CNS,5.16 µM
same,TGI,PC-3 prostate,> 100 µM
same,TGI,ACHN renal,> 100 µM
same,TGI,SN12C renal,> 100 µM
same,TGI,DU-145 prostate,> 100 µM
same,TGI,NCI-H23 lung,> 30.3 µM
same,TGI,SK-MEL-5 melanoma,> 100 µM
same,TGI,CCRF-CEM leukemia,17.9 µM
same,TGI,SK-MEL-28 melanoma,> 100 µM
same,TGI,MDA-MB-435,> 100 µM
same,TGI,CAKI-1 renal,> 100 µM
same,TGI,A549 NSCLC,> 100 µM
same,TGI,MCF7 breast,> 100 µM
same,TGI,MDA-N,> 100 µM
same,TGI,SK-OV-3 ovarian,> 100 µM
same,TGI,TK-10 renal,> 100 µM
same,TGI,SF-295 CNS,> 100 µM
same,TGI,EKVX NSCLC,> 100 µM
same,TGI,COLO 205 colon,> 100 µM
same,TGI,K-562 leukemia,> 100 µM
same,TGI,SW-620 colon,> 100 µM
same,TGI,UO-31 renal,> 100 µM
same,TGI,OVCAR-8 ovarian,> 100 µM
same,TGI,HOP-92 NSCLC,> 100 µM
same,TGI,OVCAR-4 ovarian,> 100 µM
same,TGI,RPMI-8226 leukemia,> 100 µM
same,TGI,OVCAR-5 ovarian,> 100 µM
same,TGI,T-47D breast,> 100 µM
same,TGI,HCT-15 colon,> 100 µM
same,TGI,SF-268 CNS,> 100 µM
